According to patent EP4613269A1, “RIFAXIMIN FOR USE IN TREATING SARCOPENIA IN PATIENTS WITH LIVER DISEASE” (priority 2024, dated 2025):

Legend:
[1] = Retrospective cohort study: skeletal muscle area (SMA) at L3 from serial abdominal CT scans; type: in vivo, human; conditions: for Follow-up skeletal muscle area: Median (IQR) at second CT scan, rifaximin N = 63 (with lactulose), lactulose alone N = 79; for median change in SMA: between first and second abdominal CT scan (3-9 months apart), patients with cirrhosis and HE, rifaximin 550 mg twice daily orally with lactulose vs lactulose monotherapy
Excerpt: (§1) This study is a single-centre retrospective cohort study of patients treated with lactulose or rifaximin with lactulose, under the care of the liver transplant service in Melbourne, Australia, between 2009 and 2022. The primary outcome measure was a change in muscle mass over time between the rifaximin versus non-rifaximin treated cohort. Secondary outcomes included. Clostridium difficile infection and mortality.
(§2) All adult patients (age >18 years) with cirrhosis and documented clinically apparent hepatic encephalopathy (HE) known to the Victorian liver transplant service were considered for analysis. Inclusion criteria required patients to have had serial abdominal CT scans at least 3 months and at most 9 months apart during their time on the liver transplant waitlist to allow for comparison of muscle mass over time. Rifaximin became widely available as a treatment of HE on the Pharmaceutical Benefits Scheme in Australia in January 2014. Therefore, patients on lactulose monotherapy (January 2009 to December 2013) were compared to those receiving rifaximin with lactulose (January 2014 to July 2022). Patients were orally administered 550 mg of rifaximin (alpha) twice daily. Lactulose treatment for HE was under standard conditions, i.e. lactulose administration in syrup form at a dose of 15 to 30 mL two to four times a day to aim for two semisoft stools per day. Patients otherwise received standard of care management of cirrhosis including nutritional advice from an experienced liver dietitian.
Muscle mass data was calculated from CT scans performed at two time-points in the patient journey to determine progress and change of outcomes. The first time-point for data collection, including for demographics and blood parameters, was time of first CT. The second time-point for data collection was collected between three to nine months following the first time point when the follow up CT was performed.
SMA was measured using the cross-sectional area of the abdominal muscles at the third lumbar vertebrae (L3) using CoreSlicer (^©2018), a web-based program for accurate measurement of body composition, verified for this purpose (Mullie & Afilalo "CoreSlicer: a web toolkit for analytic morphomics" BMC Med. Imaging (2019), 19(1): 15).
Statistical analysis was performed using R version 4.1.1. Subgroups were compared by χ^2 test for categorical variables and Student's t-test or Wilcoxon rank sum test for parametric and non-parametric continuous variables, respectively. Linear regression models (analysis of covariance) were used to assess the impact of clinical variables on muscle endpoints. […]
Averages were expressed as mean ± standard deviation for normally distributed variables, and as medians ± IQR for non-normally distributed variables.

[2] = Retrospective cohort study: clinical outcomes (transplant outcome, mortality, Clostridium difficile infection); type: in vivo, human; conditions: for Transplant outcome: Died on list: died awaiting transplantation; for episodes of Clostridium difficile infection: during study follow-up; for Transplant outcome: Delisted / Transplant outcome: Rejected / Transplant outcome: Transplanted: liver transplant waitlist patients with cirrhosis and HE; for median time to death from listing: patients who died awaiting transplant; for Median time-to-transplant: transplanted patients
Excerpt: as §1, §2
Included data comprised baseline demographics (age, gender, aetiology of liver disease, body mass index (BMI)); disease assessment at workup (Sodium Model of End-Stage Liver Disease (NaMELD)), Child-Pugh-Turcotte (CTP) score; sarcopenia assessment (skeletal muscle area (SMA, cm^2)) from single slice CT scan, sepsis (hospitalisation data for infective complications, episodes of spontaneous bacterial peritonitis); rifaximin complications (Clostridium difficile infections); and mortality and transplantation outcome data.
Patients were followed up until: end outcomes occurred; delisting from service; rejected prior to formal transplant workup; death prior to transplant; or liver transplantation.

Row | SMILES | Follow-up skeletal muscle area [1] | median change in SMA [1] | Transplant outcome: Died on list [2] | Transplant outcome: Died on list ([2]; listed as lactulose) | episodes of Clostridium difficile infection [2] | Transplant outcome: Delisted [2] | Transplant outcome: Rejected [2] | Transplant outcome: Transplanted [2] | median time to death from listing [2] [days] | Median time-to-transplant [2] [days]
1 | OC[C@H]1O[C@@H](O[C@@H]2[C@@H](CO)OC(O)(CO)[C@H]2O)[C@H](O)[C@@H](O)[C@H]1O (mixture of isomers) [Lactulose alone, Lactulose] | 159 (137, 174) cm^2 | -6.9 cm^2 | 5 (6.5%) n (%) | 5 (6.5 %) n (%) | none | 15 (19%) n (%) | 0 (0%) n (%) | 57 (74%) n (%) | 282 | 312.5
2 | CO[C@H]1/C=C/O[C@@]2(C)Oc3c(C)c(O)c4c(O)c(c5c(nc6cc(C)ccn65)c4c3C2=O)NC(=O)/C(C)=C\C=C\[C@H](C)[C@H](O)[C@@H](C)[C@@H](O)[C@@H](C)[C@H](OC(C)=O)[C@@H]1C [Rifaximin, 4-deoxy-4'-methylpyrido[1',2'-1,2]imidazo-[5,4-c] rifamycin SV] | 162 (134, 190) cm^2 | +0.74 cm^2 | 2 (3.4%) n (%) |  | one | 4 (6.9%) n (%) | 1 (1.7%) n (%) | 51 (88%) n (%) | 265.5 | 353
